Measured values: US20010016568A1, “NOVEL METAL COMPLEXES” (priority 1997, published 2001)

T1: G-CSF receptor (Mus musculus, UniProt P40223)
T1 construct: they express endogenous G-CSF receptors; endogenous in cells; host or cells: NFS60 murine myeloid cells carrying a G-CSF-responsive luciferase reporter
T1 sequence (P40223 26-837): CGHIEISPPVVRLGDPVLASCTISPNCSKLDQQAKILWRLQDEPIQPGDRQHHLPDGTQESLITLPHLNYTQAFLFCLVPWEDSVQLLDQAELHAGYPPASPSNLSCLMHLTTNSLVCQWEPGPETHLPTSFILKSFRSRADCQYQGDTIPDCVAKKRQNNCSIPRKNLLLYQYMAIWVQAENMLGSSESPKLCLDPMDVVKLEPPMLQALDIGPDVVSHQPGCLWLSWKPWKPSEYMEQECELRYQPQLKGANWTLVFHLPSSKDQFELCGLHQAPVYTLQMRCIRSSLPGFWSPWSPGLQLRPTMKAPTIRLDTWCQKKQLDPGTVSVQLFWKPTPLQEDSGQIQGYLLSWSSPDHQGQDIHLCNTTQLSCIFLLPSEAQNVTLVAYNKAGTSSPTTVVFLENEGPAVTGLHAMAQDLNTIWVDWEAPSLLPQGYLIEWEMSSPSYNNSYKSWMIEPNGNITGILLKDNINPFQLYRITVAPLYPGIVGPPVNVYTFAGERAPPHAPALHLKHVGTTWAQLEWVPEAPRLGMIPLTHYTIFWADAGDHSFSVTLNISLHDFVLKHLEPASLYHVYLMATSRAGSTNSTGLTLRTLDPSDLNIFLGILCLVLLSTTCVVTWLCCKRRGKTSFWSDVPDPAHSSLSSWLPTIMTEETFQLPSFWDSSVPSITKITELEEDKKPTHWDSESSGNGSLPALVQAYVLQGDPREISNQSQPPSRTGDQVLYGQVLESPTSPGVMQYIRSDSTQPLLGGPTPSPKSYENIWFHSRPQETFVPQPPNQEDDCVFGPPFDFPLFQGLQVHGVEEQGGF

T2: G-CSF/Fc fusion protein (Mus musculus, UniProt P40223)
T2 construct: which contained the extracellular domain of the receptor presented in a dimeric form due to the Fc component
T2 sequence (P40223 26-626 limits assumed): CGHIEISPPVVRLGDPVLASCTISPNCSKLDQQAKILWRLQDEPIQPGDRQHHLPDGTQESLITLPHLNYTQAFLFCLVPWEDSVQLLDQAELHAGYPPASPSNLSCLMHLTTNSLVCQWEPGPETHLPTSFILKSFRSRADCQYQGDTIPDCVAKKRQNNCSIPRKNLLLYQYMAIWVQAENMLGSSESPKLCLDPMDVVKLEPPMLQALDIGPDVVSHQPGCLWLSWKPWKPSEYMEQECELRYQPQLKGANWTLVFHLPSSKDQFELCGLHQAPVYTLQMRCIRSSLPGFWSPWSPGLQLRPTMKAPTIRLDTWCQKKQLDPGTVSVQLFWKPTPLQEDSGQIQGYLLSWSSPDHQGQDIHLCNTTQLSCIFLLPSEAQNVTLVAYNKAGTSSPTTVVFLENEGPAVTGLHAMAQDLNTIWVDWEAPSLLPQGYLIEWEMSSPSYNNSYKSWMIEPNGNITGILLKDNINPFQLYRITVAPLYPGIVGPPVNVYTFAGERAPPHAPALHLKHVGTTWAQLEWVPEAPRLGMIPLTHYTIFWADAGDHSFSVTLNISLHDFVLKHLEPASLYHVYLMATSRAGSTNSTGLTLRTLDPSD


Tests used:
G-CSF receptor = molecular target: T1, G-CSF receptor; experiment: Luciferase assay in the presence of EDTA (NFS60 cells); assay type: cell-based, murine
Procedure: FIG. 3 is an analysis of the effect of ethylenediaminetetraacetic acid (as used herein—EDTA) on the activity of Compound 1a (from Example 1) in NFS60 cells. Shown are luciferase response curves of Compound 1a at the indicated concentrations and in the presence of various concentrations of EDTA. […] The media in this assay contained a small amount (1-5 μM) of zinc(II).
FIGS. 7 and 8 show an analysis of the effect of metal chlorides on the EDTA depleted activity of Compound 1a on NFS60 cells. Shown are luciferase response curves as effected by the indicated metal chlorides. […] None of the other metals tested could overcome the inhibitory effect of EDTA.
In order to determine the requisiteness of zinc chelation of small organic molecules to agonist activity at dimeric cell-surface receptors, the above luciferase assay was performed on the G-CSF receptor in the presence of EDTA. EDTA is a strong metal chelator and had as its only effect, the removal of zinc from the ligand-receptor interaction.

G-CSF/Fc fusion protein = molecular target: T2, G-CSF/Fc fusion protein; experiment: Isothermal titration microcalorimetry; assay type: binding; settings: only in the presence of zinc
Procedure: Zinc-mediated affinity of compounds from this invention for dimeric cell-surface receptors (specifically the G-CSF receptor) was measured by isothermal titration microcalorimetry experiments. Titration microcalorimetry detects binding as heat originating from the intrinsic bond forming enthalpy change. In this assay, the compounds were titrated first against zinc(II) alone. In a separate experiment, the compounds were then assayed in the presence of zinc and a dimeric cell-surface receptor/Fc fusion protein (a G-CSF/Fc fusion protein), which contained the extracellular domain of the receptor presented in a dimeric form due to the Fc component.

| effect of EDTA on luciferase activity (G-CSF receptor; EDTA at 1.2 millimolar, media contained 1-5 μM zinc(II)) | agonist activity in the presence of EDTA (G-CSF receptor; FIG. 3) | affinity for the fusion protein construct (G-CSF/Fc fusion protein) | effect of EDTA on luciferase activity (G-CSF receptor; EDTA at both 1.2 and 5 millimolar) | Molecule | effect of metal chlorides on the EDTA depleted luciferase activity (G-CSF receptor; 50 micromolar EDTA, metal chlorides (zinc, manganese, iron, copper, cobalt)) |
| --- | --- | --- | --- | --- | --- |
| antagonized | abrogated | high, submicromolar affinity |  | c1ccc(C23NC(=Nc4nc5ccccc5[nH]4)NC2(c2ccccn2)NC(=Nc2nc4ccccc4[nH]2)N3)nc1 (stereo not drawn) [Compound 1a, 2,5-Bis[2-benzimidazolylimino]-3a,6a-bis(2-pyridyl)-1,2,3,3a,4,5,6,6a-octahydroimidazo[4,5-d]imidazole] | Only zinc (II) at concentrations 0.5-10 micromolar can overcome the inhibition |
|  |  | high, submicromolar affinity |  | Cc1ccc2nc(N=C3NC4(c5ccccn5)NC(=Nc5nc6ccccc6[nH]5)NC4(c4ccccn4)N3)[nH]c2c1.O=C(O)C(F)(F)F.O=C(O)C(F)(F)F (stereo not drawn) [Compound 3a, 5-(2-benzimidazolylimino)-2-[(5-methyl-2-benzimidazolyl)imino]-3a,6a-bis(2-pyridyl)-1,2,3,3a,4,5,6,6a-octahydroimidazo[4,5-d]imidazole bis(trifluoroacetate) salt] |  |
|  |  |  | little effect | recombinant G-CSF: the natural ligand (i.e. G-CSF or recombinant G-CSF) (protein, UniProt P09919 31-207, looked up) Granulocyte …: TPLGPASSLPQSFLLKCLEQVRKIQGDGAALQEKLVSECATYKLCHPEELVLLGHSLGIPWAPLSSCPSQALQLAGCLSQLHSGLFLYQGLLQALEGISPELGPTLDTLQLDVADFATTIWQQMEELGMAPALQPTQGAMPAFASAFQRRAGGVLVASHLQSFLEVSYRVLRHLAQP |  |
